Assays:
Format in all cases: biochemical
PI3Kα = target: T1, PI3Kα (Homo sapiens, UniProt P42336); assay: In vitro determination of the PI3K enzyme inhibitory activity in the cell free assay (ADP-Glo Kinase Assay), PI3Kα; conditions: ATP 50 μM, read-out: PI3K alpha inhibition
T1 construct: purchased Millipore Ltd (Billerica, Mass.)
Experimental: (§1) In vitro Determination of the PI3K Enzyme Inhibitory Activity in the Cell Free Assay
(§2) Human recombinant proteins PI3Kα, PI3Kβ, PI3Kγ and PI3Kδ were purchased from Millipore Ltd (Billerica, Mass.). Compounds were dissolved at 0.5 mM in DMSO and were tested at different concentrations for their activity against PI3Ks using the ADP-Glo™ Kinase Assay (Promega, Madison Wis.) according to the manufacturer's instructions.
(§3) Briefly, the kinase reactions were performed in 384-well white plates (Greiner Bio-One GmbH, Frickenhausen). Each well was loaded with 0.1 μl of test compounds and 2.5 μl of 2× reaction buffer (40 mM Tris pH7.5, 0.5 mM EGTA, 0.5 mM Na3VO4, 5 mM β-glycerophosphate, 0.1 mg/ml BSA, 1 mM DTT), containing 50 μM PI and PS substrates (L-α-phosphatidylinositol sodium salt and L-α-phosphatidyl-L-serine, Sigma-Aldrich, St. Louis Mo.) and the PI3K recombinant proteins (PI3Kγ 0.25 ng/μl, PI3Kδ 1 ng/μl, PI3Kα 0.125 ng/μl, PI3Kβ 1 ng/μl).
(§4) The reactions were started by adding 2.5 μl of 2×ATP solution to each well (final concentrations: PI3Kγ ATP 30 μM; PI3Kδ ATP 80 μM; PI3KαATP 50 μM; PI3Kβ ATP 100 μM) and incubated for 60 min at room temperature. Subsequently, each kinase reaction was incubated for 40 min with 5 μl ADP-Glo™ Reagent, allowing depletion of unconsumed ATP. Then, the Kinase Detection Reagent (10 μl) was added in each well to convert ADP to ATP and to allow the newly synthesized ATP to be measured using a luciferase/luciferin reaction. Following 60 min incubation, the luminescence signal was measured using a Wallac EnVision® multilabel reader (PerkinElmer, Waltham Mass.).
(§5) Curve fitting and IC50 calculation were carried out using a four-parameter logistic model in XLfit (IDBS, Guilford, UK) for Microsoft Excel (Microsoft, Redmont, Wash.).

PI3Kβ = target: T2, PI3Kβ (Homo sapiens, UniProt P42338); assay: In vitro determination of the PI3K enzyme inhibitory activity in the cell free assay (ADP-Glo Kinase Assay), PI3Kβ; conditions: ATP 100 μM, read-out: PI3K beta inhibition
T2 construct: purchased Millipore Ltd (Billerica, Mass.)
Experimental: as §1, §2, §3, §4, §5

PI3Kδ = target: T3, PI3Kδ (Homo sapiens, UniProt O00329); assay: In vitro determination of the PI3K enzyme inhibitory activity in the cell free assay (ADP-Glo Kinase Assay), PI3Kδ; conditions: ATP 80 μM, read-out: PI3K delta inhibition
T3 construct: purchased Millipore Ltd (Billerica, Mass.)
Experimental: as §1, §2, §3, §4, §5

PI3Kγ = target: T4, PI3Kγ (Homo sapiens, UniProt P48736); assay: In vitro determination of the PI3K enzyme inhibitory activity in the cell free assay (ADP-Glo Kinase Assay), PI3Kγ; conditions: ATP 30 μM, read-out: PI3K gamma inhibition
T4 construct: purchased Millipore Ltd (Billerica, Mass.)
Experimental: as §1, §2, §3, §4, §5

T1 sequence (P42336 whole entry): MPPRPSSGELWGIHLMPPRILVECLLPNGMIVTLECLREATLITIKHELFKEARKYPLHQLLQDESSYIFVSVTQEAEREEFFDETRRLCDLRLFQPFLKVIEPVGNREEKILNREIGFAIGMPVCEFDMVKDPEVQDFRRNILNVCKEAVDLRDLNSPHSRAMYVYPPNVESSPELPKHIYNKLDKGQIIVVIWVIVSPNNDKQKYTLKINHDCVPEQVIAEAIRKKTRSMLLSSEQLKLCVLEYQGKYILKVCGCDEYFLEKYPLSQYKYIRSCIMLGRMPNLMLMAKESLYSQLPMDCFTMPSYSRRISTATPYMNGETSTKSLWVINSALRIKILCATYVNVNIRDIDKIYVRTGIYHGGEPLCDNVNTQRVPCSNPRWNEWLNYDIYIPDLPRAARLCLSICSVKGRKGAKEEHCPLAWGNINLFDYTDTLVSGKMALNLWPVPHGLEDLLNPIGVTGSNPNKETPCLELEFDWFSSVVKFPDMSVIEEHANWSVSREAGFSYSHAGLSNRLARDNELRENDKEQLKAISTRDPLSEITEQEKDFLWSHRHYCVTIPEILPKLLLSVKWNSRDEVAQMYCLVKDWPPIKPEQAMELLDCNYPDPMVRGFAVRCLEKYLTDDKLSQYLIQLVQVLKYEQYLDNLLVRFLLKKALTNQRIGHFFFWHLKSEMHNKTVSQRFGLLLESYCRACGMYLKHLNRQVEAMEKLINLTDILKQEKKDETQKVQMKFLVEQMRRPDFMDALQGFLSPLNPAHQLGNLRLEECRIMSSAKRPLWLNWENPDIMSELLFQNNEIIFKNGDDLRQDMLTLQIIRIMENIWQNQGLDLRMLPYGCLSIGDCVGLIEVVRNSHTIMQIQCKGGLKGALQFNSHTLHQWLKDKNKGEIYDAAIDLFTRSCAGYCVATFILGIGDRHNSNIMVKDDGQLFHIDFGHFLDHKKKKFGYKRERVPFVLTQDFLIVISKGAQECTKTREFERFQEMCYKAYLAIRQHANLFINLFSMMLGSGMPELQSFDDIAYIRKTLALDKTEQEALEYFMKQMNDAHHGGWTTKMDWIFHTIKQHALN
T1 sequence (P27986 whole entry partner): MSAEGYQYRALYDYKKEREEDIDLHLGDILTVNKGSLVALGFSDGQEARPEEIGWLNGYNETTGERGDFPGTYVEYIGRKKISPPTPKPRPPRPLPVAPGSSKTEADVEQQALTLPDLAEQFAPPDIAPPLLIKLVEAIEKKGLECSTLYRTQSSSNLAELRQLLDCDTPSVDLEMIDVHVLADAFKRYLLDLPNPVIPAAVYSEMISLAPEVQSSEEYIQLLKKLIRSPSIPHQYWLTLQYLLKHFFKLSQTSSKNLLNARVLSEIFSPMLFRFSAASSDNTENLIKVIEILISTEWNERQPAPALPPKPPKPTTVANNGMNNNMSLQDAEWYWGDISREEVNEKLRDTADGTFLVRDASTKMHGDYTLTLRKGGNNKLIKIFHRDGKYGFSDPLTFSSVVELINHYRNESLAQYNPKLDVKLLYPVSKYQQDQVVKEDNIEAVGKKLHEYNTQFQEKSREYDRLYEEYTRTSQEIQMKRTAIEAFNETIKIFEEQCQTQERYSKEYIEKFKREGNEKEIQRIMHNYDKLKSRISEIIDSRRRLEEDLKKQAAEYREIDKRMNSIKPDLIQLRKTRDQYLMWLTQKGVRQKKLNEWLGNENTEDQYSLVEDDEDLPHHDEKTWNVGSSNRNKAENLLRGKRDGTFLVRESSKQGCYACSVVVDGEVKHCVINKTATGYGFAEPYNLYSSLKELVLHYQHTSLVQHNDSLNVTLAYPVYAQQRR
T3 sequence (O00329 whole entry): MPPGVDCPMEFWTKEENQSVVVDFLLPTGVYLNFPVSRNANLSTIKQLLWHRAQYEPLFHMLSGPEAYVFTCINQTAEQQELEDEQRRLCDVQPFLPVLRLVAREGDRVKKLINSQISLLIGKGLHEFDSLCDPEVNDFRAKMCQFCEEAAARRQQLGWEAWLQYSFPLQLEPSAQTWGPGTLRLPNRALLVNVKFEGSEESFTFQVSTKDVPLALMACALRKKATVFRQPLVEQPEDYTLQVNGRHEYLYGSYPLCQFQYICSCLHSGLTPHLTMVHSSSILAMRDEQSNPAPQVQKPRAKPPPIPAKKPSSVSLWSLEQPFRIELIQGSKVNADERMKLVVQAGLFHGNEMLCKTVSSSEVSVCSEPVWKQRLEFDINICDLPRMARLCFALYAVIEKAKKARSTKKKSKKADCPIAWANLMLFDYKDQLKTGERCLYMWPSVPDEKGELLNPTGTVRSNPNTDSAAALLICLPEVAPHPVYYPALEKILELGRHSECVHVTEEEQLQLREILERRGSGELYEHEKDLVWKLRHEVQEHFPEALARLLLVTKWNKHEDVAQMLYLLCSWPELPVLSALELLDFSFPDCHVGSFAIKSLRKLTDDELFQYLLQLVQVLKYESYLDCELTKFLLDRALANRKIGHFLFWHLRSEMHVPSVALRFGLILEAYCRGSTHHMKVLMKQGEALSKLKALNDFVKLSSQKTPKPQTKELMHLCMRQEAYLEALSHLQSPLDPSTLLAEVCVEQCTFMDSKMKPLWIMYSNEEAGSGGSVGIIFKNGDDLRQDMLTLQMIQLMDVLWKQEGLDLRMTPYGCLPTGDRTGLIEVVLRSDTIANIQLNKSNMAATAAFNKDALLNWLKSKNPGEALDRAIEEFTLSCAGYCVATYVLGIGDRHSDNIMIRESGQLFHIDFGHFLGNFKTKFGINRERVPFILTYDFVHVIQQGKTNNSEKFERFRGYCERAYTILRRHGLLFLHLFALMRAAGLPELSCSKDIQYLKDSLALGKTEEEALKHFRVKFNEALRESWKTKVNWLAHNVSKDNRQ
T3 sequence (P27986 whole entry partner): as the sequence (P27986 whole entry partner) above
T2 sequence (P42338 whole entry): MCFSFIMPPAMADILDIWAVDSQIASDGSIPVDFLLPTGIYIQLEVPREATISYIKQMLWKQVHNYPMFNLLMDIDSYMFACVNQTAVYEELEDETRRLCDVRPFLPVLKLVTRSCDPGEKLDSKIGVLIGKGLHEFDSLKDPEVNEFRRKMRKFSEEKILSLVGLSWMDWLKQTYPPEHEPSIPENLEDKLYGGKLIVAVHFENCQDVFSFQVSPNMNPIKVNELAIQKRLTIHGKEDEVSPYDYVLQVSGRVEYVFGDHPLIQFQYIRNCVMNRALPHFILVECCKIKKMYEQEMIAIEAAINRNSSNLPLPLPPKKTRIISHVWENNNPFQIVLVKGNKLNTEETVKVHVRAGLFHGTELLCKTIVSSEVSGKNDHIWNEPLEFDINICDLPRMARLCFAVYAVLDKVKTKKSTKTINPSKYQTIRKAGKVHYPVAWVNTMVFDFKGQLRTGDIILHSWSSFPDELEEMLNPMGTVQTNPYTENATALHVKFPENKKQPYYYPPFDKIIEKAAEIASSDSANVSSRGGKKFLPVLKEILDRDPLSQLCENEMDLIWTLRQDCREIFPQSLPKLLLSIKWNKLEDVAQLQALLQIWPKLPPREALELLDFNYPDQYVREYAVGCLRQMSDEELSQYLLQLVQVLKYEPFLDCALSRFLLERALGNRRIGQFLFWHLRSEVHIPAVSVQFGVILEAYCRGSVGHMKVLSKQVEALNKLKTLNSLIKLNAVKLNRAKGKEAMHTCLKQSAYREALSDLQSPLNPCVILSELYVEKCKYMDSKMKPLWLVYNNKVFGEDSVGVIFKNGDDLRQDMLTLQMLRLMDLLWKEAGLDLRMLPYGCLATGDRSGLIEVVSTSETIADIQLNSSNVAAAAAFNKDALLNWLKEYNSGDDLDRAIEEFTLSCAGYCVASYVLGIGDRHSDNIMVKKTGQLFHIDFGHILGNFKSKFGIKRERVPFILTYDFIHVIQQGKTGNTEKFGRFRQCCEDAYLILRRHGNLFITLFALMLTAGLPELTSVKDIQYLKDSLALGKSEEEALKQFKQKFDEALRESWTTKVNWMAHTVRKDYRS
T2 sequence (P27986 whole entry partner): as the sequence (P27986 whole entry partner) above
T4 sequence (P48736 whole entry): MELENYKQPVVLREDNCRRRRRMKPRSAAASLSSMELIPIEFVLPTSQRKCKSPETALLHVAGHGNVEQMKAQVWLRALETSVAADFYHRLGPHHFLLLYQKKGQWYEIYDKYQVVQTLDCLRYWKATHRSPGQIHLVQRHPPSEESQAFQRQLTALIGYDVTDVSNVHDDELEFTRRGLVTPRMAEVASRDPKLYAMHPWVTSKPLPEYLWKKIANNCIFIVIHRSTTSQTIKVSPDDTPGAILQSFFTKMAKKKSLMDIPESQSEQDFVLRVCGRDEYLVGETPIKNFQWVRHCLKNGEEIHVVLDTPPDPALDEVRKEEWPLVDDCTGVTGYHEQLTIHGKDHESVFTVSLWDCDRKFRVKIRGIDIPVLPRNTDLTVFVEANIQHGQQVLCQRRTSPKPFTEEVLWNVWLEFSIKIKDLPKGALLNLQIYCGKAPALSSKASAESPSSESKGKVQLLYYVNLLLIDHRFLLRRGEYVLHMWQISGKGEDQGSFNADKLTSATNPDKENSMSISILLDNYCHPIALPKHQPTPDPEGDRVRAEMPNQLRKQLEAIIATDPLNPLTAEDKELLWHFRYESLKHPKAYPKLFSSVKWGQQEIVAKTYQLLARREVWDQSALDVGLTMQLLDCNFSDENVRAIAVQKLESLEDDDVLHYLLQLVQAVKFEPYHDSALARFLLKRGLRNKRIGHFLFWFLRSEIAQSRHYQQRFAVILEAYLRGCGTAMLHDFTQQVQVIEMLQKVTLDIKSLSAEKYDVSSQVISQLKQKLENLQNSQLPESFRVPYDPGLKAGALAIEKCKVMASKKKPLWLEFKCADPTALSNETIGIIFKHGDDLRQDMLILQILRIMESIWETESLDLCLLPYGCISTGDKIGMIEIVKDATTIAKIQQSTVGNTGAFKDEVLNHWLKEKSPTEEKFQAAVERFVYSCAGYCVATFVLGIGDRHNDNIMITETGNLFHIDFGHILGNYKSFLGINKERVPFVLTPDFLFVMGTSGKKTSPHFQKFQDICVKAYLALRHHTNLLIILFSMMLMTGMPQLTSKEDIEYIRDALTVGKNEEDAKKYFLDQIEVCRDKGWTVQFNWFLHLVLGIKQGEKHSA

Row | SMILES | IC50 (PI3Kα) [µM] | IC50 (PI3Kβ) [µM] | IC50 (PI3Kδ) [µM] | IC50 (PI3Kγ) [µM]
1 | C[C@H](c1c(C#N)c2ccccn2c1-c1cccc(CN(C)C)c1)n1nc(-c2cc(O)cc(F)c2)c2c(N)ncnc21 (single isomer, unassigned) [Example 127a, 2-{1-[4-amino-3-(3-fluoro-5-hydroxyphenyl)-1H-pyrazolo[3,4-d]pyrimidin-1-yl]ethyl}-3-{3-[(dimethylamino)methyl]phenyl}indolizine-1-carbonitrile] | 0.01 to 1 | 0.01 to 1 | < 0.01 | 0.01 to 1
2 | C[C@H](c1c(C#N)c2ccccn2c1-c1cccc(CN(C)C)c1)n1nc(-c2cc(O)cc(F)c2)c2c(N)ncnc21 (single isomer, unassigned) [Example 127b, 2-{1-[4-amino-3-(3-fluoro-5-hydroxyphenyl)-1H-pyrazolo[3,4-d]pyrimidin-1-yl]ethyl}-3-{3-[(dimethylamino)methyl]phenyl}indolizine-1-carbonitrile] | > 1 | > 1 | < 0.01 | > 1
3 | CC(c1cc2ccccn2c1-c1ccn(CCN(C)C)c(=O)c1)n1nc(-c2cc(O)cc(F)c2)c2c(N)ncnc21 (single isomer, unassigned) [Example 133a, 4-(2-{1-[4-amino-3-(3-fluoro-5-hydroxyphenyl)-1H-pyrazolo[3,4-d]pyrimidin-1-yl]ethyl}indolizin-3-yl)-1-[2-(dimethylamino)ethyl]-1,2-dihydropyridin-2-one] | > 1 | > 1 | 0.01 to 1 | > 1
4 | CC(c1cc2ccccn2c1-c1ccn(CCN(C)C)c(=O)c1)n1nc(-c2cc(O)cc(F)c2)c2c(N)ncnc21 (single isomer, unassigned) [Example 133b, 4-(2-{1-[4-amino-3-(3-fluoro-5-hydroxyphenyl)-1H-pyrazolo[3,4-d]pyrimidin-1-yl]ethyl}indolizin-3-yl)-1-[2-(dimethylamino)ethyl]-1,2-dihydropyridin-2-one] | 0.01 to 1 | 0.01 to 1 | < 0.01 | 0.01 to 1
5 | Nc1ncnc2c1ncn2Cc1cc2ccccn2c1-c1ccccc1 [Example 1, 9-[(3-phenylindolizin-2-yl)methyl]-9H-purin-6-amine] | > 1 | > 1 | > 1 | > 1
6 | Nc1ncn(Cc2cc3ccccn3c2-c2ccccc2)c2ncnc1-2 [Example 2, 3-[(3-phenylindolizin-2-yl)methyl]-3H-purin-6-amine] | > 1 | > 1 | > 1 | > 1
7 | Nc1ncnc2c1ncn2Cc1cc2ccccn2c1-c1cccc(F)c1 [Example 4, 9-{[3-(3-fluorophenyl)indolizin-2-yl]methyl}-9H-purin-6-amine] | > 1 | > 1 | 0.01 to 1 | > 1
8 | Nc1ncn(Cc2cc3ccccn3c2-c2cccc(F)c2)c2ncnc1-2 [Example 5, 3-{[3-(3-fluorophenyl)indolizin-2-yl]methyl}-3H-purin-6-amine] | > 1 | > 1 | > 1 | > 1
9 | Nc1ncnc2c1ncn2Cc1cc2ccccn2c1-c1ccccc1F [Example 6, 9-{[3-(2-fluorophenyl)indolizin-2-yl]methyl}-9H-purin-6-amine] | > 1 | > 1 | > 1 | > 1
10 | Cc1ccccc1-c1c(Cn2cnc3c(N)ncnc32)cc2ccccn12 [Example 7, 9-{[3-(2-methylphenyl)indolizin-2-yl]methyl}-9H-purin-6-amine] | > 1 | > 1 | > 1 | > 1
11 | Cc1ccccc1-c1c(Cn2cnc(N)c3ncnc2-3)cc2ccccn12 [Example 8, 3-{[3-(2-methylphenyl)indolizin-2-yl]methyl}-3H-purin-6-amine] | > 1 | > 1 | > 1 | > 1

Now from value to compound:

Row | IC50 (PI3Kα) [µM] | IC50 (PI3Kβ) [µM] | IC50 (PI3Kδ) [µM] | IC50 (PI3Kγ) [µM] | SMILES
12 | > 1 | > 1 | > 1 | > 1 | Nc1ncnc2c1ncn2Cc1cc2ccccn2c1-c1ccccn1 [Example 3, 9-{[3-(pyridin-2-yl)indolizin-2-yl]methyl}-9H-purin-6-amine]
13 | > 1 | > 1 | > 1 | > 1 | Nc1ncnc2c1ncn2Cc1cc2ccccn2c1 [Example 9, 9-(indolizin-2-ylmethyl)-9H-purin-6-amine]
14 | > 1 | > 1 | > 1 | > 1 | Nc1ncnc2c1ncn2Cc1cn2ccccc2c1-c1ccccc1 [Example 10, 9-[(1-phenylindolizin-2-yl)methyl]-9H-purin-6-amine]
15 | > 1 | > 1 | > 1 | > 1 | Nc1ncnc2c1ncn2Cc1cn2ccccc2c1-c1cccc(F)c1 [Example 11, 9-{[1-(3-fluorophenyl)indolizin-2-yl]methyl}-9H-purin-6-amine]
16 | > 1 | > 1 | > 1 | > 1 | Cc1ccccc1-c1c(Cn2cnc3c(N)ncnc32)cn2ccccc12 [Example 12, 9-{[1-(2-methylphenyl)indolizin-2-yl]methyl}-9H-purin-6-amine]
17 | > 1 | > 1 | > 1 | > 1 | c1ccc(-c2c(CNc3ncnc4[nH]cnc34)cc3ccccn23)cc1 [Example 13, N-[(3-phenylindolizin-2-yl)methyl]-9H-purin-6-amine]
18 | > 1 | > 1 | > 1 | > 1 | c1ccc(-c2c(CNc3ncnc4[nH]cnc34)cc3ccccn23)nc1 [Example 14, N-{[3-(pyridin-2-yl)indolizin-2-yl]methyl}-9H-purin-6-amine]
19 | > 1 | > 1 | > 1 | > 1 | Fc1cccc(-c2c(CNc3ncnc4[nH]cnc34)cc3ccccn23)c1 [Example 15, N-{[3-(3-fluorophenyl)indolizin-2-yl]methyl}-9H-purin-6-amine]
20 | > 1 | > 1 | > 1 | > 1 | Fc1ccccc1-c1c(CNc2ncnc3[nH]cnc23)cc2ccccn12 [Example 16, N-{[3-(2-fluorophenyl)indolizin-2-yl]methyl}-9H-purin-6-amine]
21 | > 1 | > 1 | > 1 | > 1 | c1ccc(-c2c(CNc3ncnc4[nH]cnc34)cn3ccccc23)cc1 [Example 17, N-[(1-phenylindolizin-2-yl)methyl]-9H-purin-6-amine]
22 | > 1 | > 1 | 0.01 to 1 | > 1 | Fc1cccc(-c2c(CNc3ncnc4[nH]cnc34)cn3ccccc23)c1 [Example 18, N-{[1-(3-fluorophenyl)indolizin-2-yl]methyl}-9H-purin-6-amine]
23 | > 1 | > 1 | > 1 | > 1 | Cc1ccccc1-c1c(CNc2ncnc3[nH]cnc23)cn2ccccc12 [Example 19, N-{[1-(2-methylphenyl)indolizin-2-yl]methyl}-9H-purin-6-amine]
24 | > 1 | > 1 | 0.01 to 1 | > 1 | c1ccc(-c2c(CNc3ncnc4[nH]cnc34)cn3ccccc23)nc1 [Example 20, N-{[1-(pyridin-2-yl)indolizin-2-yl]methyl}-9H-purin-6-amine]
25 | > 1 | 0.01 to 1 | 0.01 to 1 | > 1 | c1ccn2cc(CNc3ncnc4[nH]cnc34)cc2c1 [Example 21, N-(indolizin-2-ylmethyl)-9H-purin-6-amine]
26 | > 1 | > 1 | 0.01 to 1 | > 1 | N#Cc1c(N)ncnc1NCc1cc2ccccn2c1-c1ccccc1 [Example 22, 4-amino-6-{[(3-phenylindolizin-2-yl)methyl]amino}pyrimidine-5-carbonitrile]
27 | > 1 | > 1 | 0.01 to 1 | > 1 | N#Cc1c(N)ncnc1NCc1cc2ccccn2c1-c1ccccn1 [Example 23, 4-amino-6-({[3-(pyridin-2-yl)indolizin-2-yl]methyl}amino)pyrimidine-5-carbonitrile]
28 | > 1 | > 1 | 0.01 to 1 | > 1 | N#Cc1c(N)ncnc1NCc1cc2ccccn2c1-c1cccc(F)c1 [Example 24, 4-amino-6-({[3-(3-fluorophenyl)indolizin-2-yl]methyl}amino)pyrimidine-5-carbonitrile]

— patent US9527869B2, “Indolizine derivatives as phoshoinositide 3-kinases inhibitors” (CHIESI FARMACEUTICI S.P.A., priority 2014, dated 2016)
